Reference: patent publication US8309718B2, “4-pyrazolyl-N-arylpyrimidin-2-amines and 4-pyrazolyl-N-heteroarylpyrimidin-2-amines as janus kinase inhibitors” (Incyte Corporation, priority 2007, dated 2012)

Target: T1, human JAK2 (Homo sapiens, UniProt O60674)
T1 construct: JAK2 (a.a. 828-1132); His tag (N); made in house; host or cells: insect cells (baculovirus)
Test: In vitro JAK kinase assay (HTRF, phosphorylation of biotinylated peptide)
Type: biochemical
Conditions: catalytic domain a.a. 828-1132, 30 μM ATP, 500 nM peptide, room temperature 1 hr; read-out: JAK-2 IC50
How it was run: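 IC50 from HTRF detection (Eu-Py20 antibody, SA-APC) of biotinylated-peptide phosphorylation (500 nM), run 1 h at RT. Enzyme: N-His human JAK2 kinase domain a.a. 828-1132 from insect cells; ATP 30 μM; buffer 50 mM Tris pH 7.8 with NaCl, DTT, BSA.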

T1 sequence (O60674 828-1132): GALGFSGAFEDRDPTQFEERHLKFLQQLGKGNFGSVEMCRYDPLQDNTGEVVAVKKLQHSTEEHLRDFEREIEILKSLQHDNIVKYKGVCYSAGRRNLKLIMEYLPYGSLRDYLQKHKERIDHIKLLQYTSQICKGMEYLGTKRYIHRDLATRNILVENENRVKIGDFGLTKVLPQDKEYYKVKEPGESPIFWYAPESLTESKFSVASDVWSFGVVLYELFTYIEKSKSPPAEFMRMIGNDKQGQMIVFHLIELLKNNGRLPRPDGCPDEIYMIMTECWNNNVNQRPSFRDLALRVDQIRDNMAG

IC50, < 100 nM:
COc1cnc(Nc2cccc(C(=O)N3CCC(O)CC3)c2)nc1-c1cnn(C(CC#N)C2CC2)c1 (racemic) [Example 329, 3-cyclopropyl-3-{4-[2-({3-[(4-hydroxypiperidin-1-yl)carbonyl]phenyl}amino)-5-methoxypyrimidin-4-yl]-1H-pyrazol-1-yl}propanenitrile]
N#CCC(C1CCCC1)n1cc(-c2ccnc(Nc3ccc(NC(=O)c4ccno4)cc3)n2)cn1 (racemic) [Example 188, N-(4-(4-(1-(2-cyano-1-cyclopentylethyl)-1H-pyrazol-4-yl)pyrimidin-2-ylamino)phenyl)isoxazole-5-carboxamide]
CCS(=O)(=O)N1CC(CC#N)(n2cc(-c3ccnc(Nc4ccc(C(=O)NC5CCOCC5)cc4)n3)cn2)C1 [Example 259, 4-(4-(1-(3-(cyanomethyl)-1-(ethylsulfonyl)azetidin-3-yl)-1H-pyrazol-4-yl)pyrimidin-2-ylamino)-N-(tetrahydro-2H-pyran-4-yl)benzamide]
COc1ccc(Nc2nccc(-c3cnn(C(CC#N)CC4CCN(C(=O)c5ccc(F)cc5F)CC4)c3)n2)cc1 (racemic) [Example 3, 4-(1-(2,4-difluorobenzoyl)piperidin-4-yl)-3-(4-(2-(4-methoxyphenylamino)pyrimidin-4-yl)-1H-pyrazol-1-yl)butanenitrile]
N#CCC(C1CCCC1)n1cc(-c2ccnc(Nc3ccc(C(=O)NCC4CC4)cc3)n2)cn1 (racemic) [Example 126, 4-(4-(1-(2-cyano-1-cyclopentylethyl)-1H-pyrazol-4-yl)pyrimidin-2-ylamino)-N-(cyclopropylmethyl)benzamide]
N#CCC1(n2cc(-c3ccnc(Nc4ccc(N5CCCCC5=O)cc4)n3)cn2)CC(C#N)C1 (single isomer, unassigned) [Example 336, 3-(cyanomethyl)-3-[4-(2-{[4-(2-oxopiperidin-1-yl)phenyl]amino}pyrimidin-4-yl)-1H-pyrazol-1-yl]cyclobutanecarbonitrile]
N#CCC(C1CC1)n1cc(-c2ccnc(Nc3ccc(C(=O)N4[C@@H]5CC[C@H]4C[C@@H](O)C5)cc3)n2)cn1 (mixture of isomers) [Example 252, 3-cyclopropyl-3-(4-(2-(4-((3-endo)-3-hydroxy-8-azabicyclo[3.2.1]octane-8-carbonyl)phenylamino)pyrimidin-4-yl)-1H-pyrazol-1-yl)propanenitrile]
N#CCC(C1CCCC1)n1cc(-c2ccnc(Nc3ccc(OCCN4CCCC4)cc3)n2)cn1 (racemic) [Example 306, 3-cyclopentyl-3-[4-(2-{[4-(2-pyrrolidin-1-ylethoxy)phenyl]amino}pyrimidin-4-yl)-1H-pyrazol-1-yl]propanenitrile]
CCN(CC)c1ccc(Nc2ncc(C)c(-c3cnn(C(CC#N)C4CCCC4)c3)n2)cc1 (racemic) [Example 79, 3-cyclopentyl-3-(4-(2-(4-(diethylamino)phenylamino)-5-methylpyrimidin-4-yl)-1H-pyrazol-1-yl)propanenitrile]
Cc1cnc(Nc2ccc([N+](=O)[O-])cc2)nc1-c1cnn(C(CC#N)C2CCCC2)c1 (racemic) [Example 82, 3-cyclopentyl-3-(4-(5-methyl-2-(4-nitrophenylamino)pyrimidin-4-yl)-1H-pyrazol-1-yl)propanenitrile]
N#CCC(C1CCCC1)n1cc(-c2ccnc(Nc3cccc(NC(=O)CN4CCOCC4)c3)n2)cn1 (racemic) [Example 242, N-(3-(4-(1-(2-cyano-1-cyclopentylethyl)-1H-pyrazol-4-yl)pyrimidin-2-ylamino)phenyl)-2-morpholinoacetamide]
COc1cnc(Nc2ccc(N3CCOCC3=O)cc2)nc1-c1cnn(C(CC#N)C2CCCC2)c1 (racemic) [Example 133, 3-cyclopentyl-3-(4-(5-methoxy-2-(4-(3-oxomorpholino)phenylamino)pyrimidin-4-yl)-1H-pyrazol-1-yl)propanenitrile]
N#CCC(C1CCCC1)n1cc(-c2ccnc(Nc3cccc(NC(=O)O[C@@H]4CCOC4)c3)n2)cn1 (stereo partly drawn) [Example 200, (R)-tetrahydrofuran-3-yl 3-(4-(1-(2-cyano-1-cyclopentylethyl)-1H-pyrazol-4-yl)pyrimidin-2-ylamino)phenylcarbamate]
CC(=O)Nc1ccc(Nc2ncc(C)c(-c3cnn(C(CC#N)CC4CCN(S(=O)(=O)c5ccn(C)n5)CC4)c3)n2)cc1 (racemic) [Example 51, N-(4-(4-(1-(1-cyano-3-(1-(1-methyl-1H-pyrazol-3-ylsulfonyl)piperidin-4-yl)propan-2-yl)-1H-pyrazol-4-yl)-5-methylpyrimidin-2-ylamino)phenyl)acetamide]
N#CCC(C1CCOCC1)n1cc(-c2ccnc(Nc3ccc(C(=O)N4CCCC4)cc3)n2)cn1 (racemic) [Example 310, 3-[4-(2-{[4-(pyrrolidin-1-ylcarbonyl)phenyl]amino}pyrimidin-4-yl)-1H-pyrazol-1-yl]-3-(tetrahydro-2H-pyran-4-yl)propanenitrile]
N#CCC(C1CC1)n1cc(-c2ccnc(Nc3ccc(-n4cccn4)cc3)n2)cn1 (racemic) [Example 178, 3-(4-(2-(4-(1H-pyrazol-1-yl)phenylamino)pyrimidin-4-yl)-1H-pyrazol-1-yl)-3-cyclopropylpropanenitrile]
N#CCC(C1CCCC1)n1cc(-c2ccnc(Nc3cccc(C(=O)N4CCN(CCO)CC4)c3)n2)cn1 (racemic) [Example 138, 3-cyclopentyl-3-(4-(2-(3-(4-(2-hydroxyethyl)piperazine-1-carbonyl)phenylamino)pyrimidin-4-yl)-1H-pyrazol-1-yl)propanenitrile]
N#CCC(C1CCN(c2ncc(F)cn2)CC1)n1cc(-c2ccnc(Nc3ccc(N4CCOCC4)cc3)n2)cn1 (racemic) [Example 23, 3-(1-(5-fluoropyrimidin-2-yl)piperidin-4-yl)-3-(4-(2-(4-morpholinophenylamino)pyrimidin-4-yl)-1H-pyrazol-1-yl)propanenitrile]
CN1CCCC1CCNC(=O)c1cccc(Nc2nccc(-c3cnn(C(CC#N)C4CCCC4)c3)n2)c1 (stereo not shown) [Example 149, 3-(4-(1-(2-cyano-1-cyclopentylethyl)-1H-pyrazol-4-yl)pyrimidin-2-ylamino)-N-(2-(1-methylpyrrolidin-2-yl)ethyl)benzamide]
N#CCC(C1CCCC1)n1cc(-c2ccnc(Nc3ccc(NS(=O)(=O)c4ccc(N5CCOCC5)nc4)cc3)n2)cn1 (racemic) [Example 197, N-(4-(4-(1-(2-cyano-1-cyclopentylethyl)-1H-pyrazol-4-yl)pyrimidin-2-ylamino)phenyl)-6-morpholinopyridine-3-sulfonamide]
Cc1cnc(Nc2ccc(-n3cccn3)cc2)nc1-c1cnn(C(CC#N)CC2CCN(S(=O)(=O)c3ccn(C)n3)CC2)c1 (racemic) [Example 63, 3-(4-(2-(4-(1H-pyrazol-1-yl)phenylamino)-5-methylpyrimidin-4-yl)-1H-pyrazol-1-yl)-4-(1-(1-methyl-1H-pyrazol-3-ylsulfonyl)piperidin-4-yl)butanenitrile]
N#CCC(C1CCCC1)n1cc(-c2ccnc(Nc3cccc(C(=O)NCCN4CCNC4=O)c3)n2)cn1 (stereo not shown) [Example 159, 3-(4-(1-(2-cyano-1-cyclopentylethyl)-1H-pyrazol-4-yl)pyrimidin-2-ylamino)-N-(2-(2-oxoimidazolidin-1-yl)ethyl)benzamide]
N#CCC(C1CCCC1)n1cc(-c2ccnc(Nc3cccc(C(=O)NCCc4cccnc4)c3)n2)cn1 (racemic) [Example 161, 3-(4-(1-(2-cyano-1-cyclopentylethyl)-1H-pyrazol-4-yl)pyrimidin-2-ylamino)-N-(2-(pyridin-3-yl)ethyl)benzamide]
CC(=O)N1CCN(C(=O)c2cccc(Nc3nccc(-c4cnn(C(CC#N)C5CCCC5)c4)n3)c2)CC1 (racemic) [Example 143, 3-(4-(2-(3-(4-acetylpiperazine-1-carbonyl)phenylamino)pyrimidin-4-yl)-1H-pyrazol-1-yl)-3-cyclopentylpropanenitrile]
COc1cnc(Nc2cccc(C(=O)NC3CCOCC3)c2)nc1-c1cnn(C(CC#N)C2CC2)c1 (racemic) [Example 323, 3-({4-[1-(2-cyano-1-cyclopropylethyl)-1H-pyrazol-4-yl]-5-methoxypyrimidin-2-yl}amino)-N-(tetrahydro-2H-pyran-4-yl)benzamide]
N#CCC(C1CC1)n1cc(-c2ccnc(Nc3ccc(N4CCOCC4)cc3)n2)cn1 (racemic) [Example 177, 3-cyclopropyl-3-(4-(2-(4-morpholinophenylamino)pyrimidin-4-yl)-1H-pyrazol-1-yl)propanenitrile]
COc1cnc(Nc2cccc(-c3ccnc(C)n3)c2)nc1-c1cnn(C(CC#N)C2CCCC2)c1 (racemic) [Example 134, 3-cyclopentyl-3-(4-(5-methoxy-2-(3-(2-methylpyrimidin-4-yl)phenylamino)pyrimidin-4-yl)-1H-pyrazol-1-yl)propanenitrile]
CC(=O)N[C@@H]1CCN(C(=O)c2ccc(Nc3nccc(-c4cnn(C5(CC#N)CC(C#N)C5)c4)n3)cc2)C1 (stereo partly drawn) [Example 299, (R)—N-(1-(4-(4-(1-(3-cyano-1-(cyanomethyl)cyclobutyl)-1H-pyrazol-4-yl)pyrimidin-2-ylamino)benzoyl)pyrrolidin-3-yl)acetamide]
